Data published in US6461997B1, “Triazole sulfones having herbicidal activity” (Monsanto Technology LLC, priority 1999, dated 2002).

Key:
[1] = test system: BRAPP (broadleaf signalgrass); assay: Pre-emergence herbicidal activity, warm season; format: in vivo, Brachiaria platyphylla; details: for Pre-emergence activity (GR80) BRAPP: GR80 = lowest tested rate (300, 100, 30, 10 g/ha) with 80% or greater inhibition, approx. 14 days after treating, 30/21° C.
In short: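 GR80 values derive from percent inhibition relative to untreated plants, read roughly 14 days after sowing and pre-emergence soil-surface treatment (compound in 50:50 acetone/water; rates typically 10, 30, 100, 300 g/ha). Warm-season weeds grew at 30/21° C day/night, cool-season ones at 18/13° C; an asterisk marks activity without reaching 80% at the highest rate.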

[2] = test system: GALAP (catchweed bedstraw); assay: Pre-emergence herbicidal activity, cool season; format: in vivo, Galium aparine; details: lowest tested rate with 80% or greater inhibition; rates 300, 100, 30, 10 g/ha; about 14 days
In short: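 Seeds sown in sterilised fertilised topsoil received surface-applied compound in 50:50 acetone/water, typically at 300, 100, 30 and 10 g/ha, then greenhouse-grown at 30/21° C (warm-season species) or 18/13° C (cool-season species). Percent inhibition versus untreated plants was scored at about 14 days, giving GR80; an asterisk marks activity short of 80% at the top rate.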

[3] = test system: SORHA (johnsongrass (seedling)); assay: Pre-plant incorporated (PPI) herbicidal activity, warm season; format: in vivo, Sorghum halepense; details: for inhibition at 10 g/ha / inhibition at 30 g/ha / inhibition at 100 g/ha / inhibition at 300 g/ha / inhibition at 900 g/ha: Sorghum halepense, PPI application, read-out: Percent inhibition SORHA; for PPI activity GR80, SORHA: pre-plant incorporated, lowest tested rate with 80% or greater inhibition, about 14 days
Description: (§1) In another set of tests, the pre-plant incorporated (PPI) activity of compounds of this invention was evaluated on the same species as for the pre-emergence tests described above. In the PPI tests the following procedure, designed to simulate PPI application, was used.
(§2) A pre-prepared topsoil mixture (described above) was placed in a pot and compacted to a depth of 1.0 to 1.25 cm from the top of the pot. Seeds of each of several monocotyledonous and dicotyledonous annual plant species were placed on top of the soil. A sufficient quantity of soil to cover the seeds and level fill the pot was weighed into an open container. A known amount of the test compound was dissolved or suspended in an organic solvent and applied by spraying to this cover soil. The cover soil was thoroughly mixed to distribute the test compound throughout the cover soil, and was then applied as a cover layer over the seeds. Untreated soil was used as a cover layer for control pots. After treatment the plants were placed in a greenhouse where they received 0.64 cm of overhead irrigation. All subsequent watering consisted of a light overhead mist and/or subirrigation as needed for germination and growth. Tables 9 and 10 below relate to warm season plant species which were placed after pre-emergence treatment in a greenhouse with a 30/21° C. day/night temperature regime. Tables 11 and 12 below relates to cool season plant species placed after pre-emergence treatment in a greenhouse or growth chamber with an 18/13° C. day/night temperature regime. Only the compounds of Examples 1, 6, 8, 11, 13 and 15-20 were included in PPI tests.
(§3) Approximately 14 days after planting and treating, the plants were observed and herbicidal efficacy recorded as percent inhibition by comparison with untreated plants.

PANDI (fall panicum) = assay: as above; format: in vivo, Panicum dichotomiflorum; details: for PPI activity GR80, PANDI: pre-plant incorporated, lowest tested rate with 80% or greater inhibition, about 14 days
Description: as §1, §2, §3

SETVI (green foxtail) [4] = assay: Pre-plant incorporated (PPI) herbicidal activity, cool season; format: in vivo, Setaria viridis; details: for inhibition at 30 g/ha / inhibition at 100 g/ha / inhibition at 300 g/ha / inhibition at 900 g/ha / inhibition at 10 g/ha: Setaria viridis, weed, PPI application, read-out: Percent inhibition SETVI; for PPI activity GR80, SETVI: pre-plant incorporated, lowest tested rate with 80% or greater inhibition, about 14 days
Description: as §1, §2, §3

BROTE (downy brome) = assay: as above; format: in vivo, Bromus tectorum; details: for inhibition at 30 g/ha / inhibition at 100 g/ha / inhibition at 300 g/ha / inhibition at 900 g/ha / inhibition at 10 g/ha: Bromus tectorum, weed, PPI application, read-out: Percent inhibition BROTE; for PPI activity GR80, BROTE: pre-plant incorporated, lowest tested rate with 80% or greater inhibition, about 14 days
Description: as §1, §2, §3

SETVI (green foxtail) [5] = assay: Post-emergence herbicidal activity, cool season; format: in vivo, Setaria viridis; details: abraded plants sprayed at 300, 100, 30 and 10 g/ha; about 14 days after treatment
In short: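 Seedlings grown from seed in topsoil pots were treated 9 to 14 days after planting, foliage first abraded with garnet particles, then sprayed with test compound in 50:50 acetone/water at 300, 100, 30 and 10 g/ha (3,100 l/ha). Kept at 18/13° C. day/night, percent inhibition versus abraded unsprayed controls was scored about 14 days later and GR80 assigned.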

[6] = Urochloa platyphylla, pre-emergence application, read-out: Percent inhibition, weed BRAPP

| Structure (SMILES) | Pre-emergence activity (GR80) BRAPP [1] | Pre-emergence activity GR80, GALAP [2] | inhibition at 10 g/ha [3] [%] | inhibition at 30 g/ha [3] [%] | inhibition at 100 g/ha [3] [%] | inhibition at 300 g/ha [3] [%] | inhibition at 900 g/ha [3] [%] | PPI activity GR80, SORHA [3] [g/ha] | PPI activity GR80, PANDI (PANDI (fall panicum)) [g/ha] | inhibition at 30 g/ha (SETVI (green foxtail) [4]) [%] | inhibition at 100 g/ha (SETVI (green foxtail) [4]) [%] | inhibition at 300 g/ha (SETVI (green foxtail) [4]) [%] | inhibition at 900 g/ha (SETVI (green foxtail) [4]) [%] | PPI activity GR80, SETVI (SETVI (green foxtail) [4]) [g/ha] | inhibition at 30 g/ha (BROTE (downy brome)) [%] | inhibition at 100 g/ha (BROTE (downy brome)) [%] | inhibition at 300 g/ha (BROTE (downy brome)) [%] | inhibition at 900 g/ha (BROTE (downy brome)) [%] | PPI activity GR80, BROTE (BROTE (downy brome)) | Post-emergence activity GR80, SETVI (SETVI (green foxtail) [5]) | other results |
| --- | --- | --- | --- | --- | --- | --- | --- | --- | --- | --- | --- | --- | --- | --- | --- | --- | --- | --- | --- | --- | --- |
| CCN(CC)C(=O)n1cnc(S(=O)(=O)C(F)(F)Br)n1 [Example 1, 3-(bromodifluoromethylsulfonyl)-1-(N,N-diethylcarbamoyl)-1,2,4-triazole] | * (activity observed, at least at highest rate, but <80% inhibition) | 100 g/ha | 70 | 50 | 100 | 100 | 100 | 30 | 100 | 80 | 99 | 100 | 100 | 100 | 0 | 20 | 50 | 100 | 300 g/ha | [empty] | inhibition at 10 g/ha [1, 6]: 0%; inhibition at 30 g/ha [1, 6]: 0%; inhibition at 100 g/ha [1, 6]: 40%; inhibition at 300 g/ha [1, 6]: 70% |
| CCSC(F)(F)S(=O)(=O)c1ncn(C(=O)N(CC)CC)n1 [Example 8, 1-(N,N-diethylcarbamoyl)-3-[difluoro(ethylthio)methylsulfonyl]-1,2,4-triazole] | 100 g/ha | [empty] |  | 100 | 90 | 100 | 100 | 30 | 30 | 100 | 100 | 100 | 100 | 30 | 0 | 0 | 65 | 99 | 300 g/ha | [empty] | inhibition at 30 g/ha (PANDI (fall panicum); Panicum dichotomiflorum, PPI application, 30 g/ha, read-out: Percent inhibition PANDI): 95%; inhibition at 100 g/ha (PANDI (fall panicum); Panicum dichotomiflorum, PPI application, 100 g/ha, read-out: Percent inhibition PANDI): 100%; inhibition at 300 g/ha (PANDI (fall panicum); Panicum dichotomiflorum, PPI application, 300 g/ha, read-out: Percent inhibition PANDI): 100%; inhibition at 900 g/ha (PANDI (fall panicum); Panicum dichotomiflorum, PPI application, 900 g/ha, read-out: Percent inhibition PANDI): 100% |
| CCN(CC)C(=O)n1cnc(S(=O)(=O)C(F)F)n1 [Example 15, 1-(N,N-diethylcarbamoyl)-3-(difluoromethylsulfonyl)-1,2,4-triazole] | 300 g/ha |  | 40 | 20 | 100 | 100 | 95 | 30 | 100 |  |  |  |  | 100 |  |  |  |  | * (activity observed, at least at highest rate, but <80% inhibition) | [empty] | inhibition at 10 g/ha [1, 6]: 0%; inhibition at 30 g/ha [1, 6]: 0%; inhibition at 100 g/ha [1, 6]: 40%; inhibition at 300 g/ha [1, 6]: 50%; inhibition at 900 g/ha ([1]; Urochloa platyphylla, pre-emergence application, 900 g/ha, read-out: Percent inhibition, weed BRAPP): 85% |
| C=C(C)CC(F)(F)S(=O)(=O)c1ncn(C(=O)N(CC)CC)n1 [Example 18] | 300 g/ha | 300 g/ha | 100 | 100 | 100 | 100 | 100 | 300 |  | 100 | 100 | 60 | 100 | 30 | 0 | 0 | 20 | 90 | 300 g/ha | [empty] | inhibition at 10 g/ha (SETVI (green foxtail) [4]): 100%; inhibition at 10 g/ha (BROTE (downy brome)): 0% |
| C=C(Br)CC(F)(F)S(=O)(=O)c1ncn(C(=O)N(CC)CC)n1 [Example 19] | 300 g/ha | 300 g/ha | 60 | 80 | 100 | 100 | 100 | 100 |  | 60 | 100 | 100 | 100 | 30 | 20 | 20 | 60 | 95 | 300 g/ha | [empty] | inhibition at 10 g/ha (SETVI (green foxtail) [4]): 50%; inhibition at 10 g/ha (BROTE (downy brome)): 0% |
